Experimental data reported in ChEMBL document CHEMBL1201862, “PubChem BioAssay data set” (2004).
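Results reflect a 48-hour exposure of cells in 96-well plates to compound at five concentrations. GI50 marks 50% less growth.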 Activity calls are given as the source filed them. No stated cut-off is given here; in the data, active = GI50 up to about 1.1 µM and inactive = higher.

Experiments:
Experiment in all cases: DTP human tumour cell line panel, 48 h
SN12C = system: SN12C
NCI-H23 = system: NCI-H23
RXF 393 = system: RXF 393
Hs-578T = system: Hs-578T
SF-539 = system: SF-539
CCRF-CEM = system: CCRF-CEM
OVCAR-5 = system: OVCAR-5
U-251 = system: U-251
TK-10 = system: TK-10
SF-268 = system: SF-268
EKVX = system: EKVX
NCI-H226 = system: NCI-H226
LOX IMVI = system: LOX IMVI
UACC-62 = system: UACC-62
MDA-N = system: MDA-N
MOLT-4 = system: MOLT-4
SK-MEL-5 = system: SK-MEL-5
HCT-116 = system: HCT-116
OVCAR-3 = system: OVCAR-3
SR = system: SR

Measured: GI50

Oc1ccccc1CNCc1ccccc1O
inactive: SN12C > 100 µM | NCI-H23 > 100 µM | RXF 393 > 100 µM | Hs-578T 39 µM | SF-539 56.1 µM | CCRF-CEM 59.2 µM | OVCAR-5 > 100 µM | U-251 > 100 µM | TK-10 > 100 µM | SF-268 > 100 µM | EKVX > 100 µM | NCI-H226 > 100 µM | LOX IMVI 65.2 µM | UACC-62 > 100 µM | MDA-N 39.8 µM | MOLT-4 88.5 µM | SK-MEL-5 46.9 µM | HCT-116 > 100 µM | OVCAR-3 > 100 µM

O=C(/C=C/C=C/c1ccccc1)c1ccc2c(c1)CCCC2
inactive: SN12C 32.5 µM | NCI-H23 35 µM | Hs-578T 4.84 µM | SF-539 54.5 µM | CCRF-CEM 27.8 µM | OVCAR-5 > 100 µM | U-251 35 µM | TK-10 73.6 µM | SF-268 16.2 µM | EKVX 36.5 µM | NCI-H226 41.1 µM | LOX IMVI 30.1 µM | SR 21.2 µM | UACC-62 > 100 µM | MDA-N 19.6 µM | MOLT-4 25.9 µM | SK-MEL-5 37.2 µM | HCT-116 31.6 µM | OVCAR-3 35.6 µM

Cn1c(=O)c2c(nc3sc4ncccc4c(=O)n32)n(C)c1=O
inactive: SN12C > 100 µM | NCI-H23 > 100 µM | RXF 393 > 100 µM | Hs-578T > 100 µM | SF-539 > 100 µM | CCRF-CEM > 100 µM | OVCAR-5 > 100 µM | U-251 > 100 µM | TK-10 > 100 µM | SF-268 > 100 µM | EKVX > 100 µM | NCI-H226 > 100 µM | LOX IMVI > 100 µM | UACC-62 > 100 µM | MDA-N > 100 µM | MOLT-4 > 100 µM | SK-MEL-5 > 100 µM | HCT-116 > 100 µM | OVCAR-3 > 100 µM

Cc1ccc(N(C)S(=O)(=O)c2ccccc2[N+](=O)[O-])cc1
inactive: SN12C 83 µM | NCI-H23 40.4 µM | RXF 393 34.9 µM | SF-539 40.1 µM | OVCAR-5 65.5 µM | U-251 49.2 µM | TK-10 > 100 µM | SF-268 48.4 µM | EKVX 55.1 µM | NCI-H226 27.3 µM | LOX IMVI 32.4 µM | SR 47.4 µM | MDA-N 34.5 µM | HCT-116 39.1 µM | OVCAR-3 44 µM

n1onc2c1NC1Nc3nonc3NC1N2 (configuration not stated)
inactive: SN12C > 100 µM | NCI-H23 > 100 µM | Hs-578T > 100 µM | SF-539 > 100 µM | CCRF-CEM > 100 µM | OVCAR-5 > 100 µM | U-251 > 100 µM | TK-10 > 100 µM | SF-268 > 100 µM | EKVX > 100 µM | NCI-H226 > 100 µM | LOX IMVI > 100 µM | MDA-N > 100 µM | MOLT-4 > 100 µM | SK-MEL-5 > 100 µM | HCT-116 > 100 µM | OVCAR-3 > 100 µM

CC[C@@]1(C[C@H]2C[C@@]3(C(=O)OC)c4[nH]c5ccccc5c4CCN3C2=O)COC2(CCCCC2)O1
inactive: SN12C 45.7 µM | NCI-H23 24.2 µM | RXF 393 19.5 µM | Hs-578T 18.9 µM | SF-539 35.1 µM | OVCAR-5 55.8 µM | TK-10 32.8 µM | SF-268 30.3 µM | EKVX 61.9 µM | LOX IMVI 32.8 µM | SR 31.3 µM | UACC-62 23.5 µM | MDA-N 43.2 µM | MOLT-4 16.6 µM | SK-MEL-5 13.5 µM | HCT-116 30 µM | OVCAR-3 51.2 µM

CCOC(=O)CCCc1cc(O)c2c(C)c3[nH]c4ccc(Cl)cc4c3c(C)c2n1
inactive: SN12C 27.3 µM | NCI-H23 50.2 µM | RXF 393 12.7 µM | SF-539 14.6 µM | CCRF-CEM 42.5 µM | OVCAR-5 82.6 µM | U-251 22.9 µM | TK-10 21.1 µM | SF-268 26.2 µM | EKVX 79.1 µM | NCI-H226 19.1 µM | LOX IMVI 38.7 µM | SR 44.4 µM | MDA-N 34.9 µM | MOLT-4 49.8 µM | SK-MEL-5 19.8 µM | HCT-116 34.8 µM | OVCAR-3 17.7 µM

O=c1c2cc(S(=O)(=O)Nc3c(Cl)cccc3Cl)ccc2ncn1NS(=O)(=O)c1ccc2ccccc2c1
inactive: SN12C > 62.5 µM | NCI-H23 > 62.5 µM | Hs-578T 15.8 µM | SF-539 > 62.5 µM | CCRF-CEM 17.1 µM | OVCAR-5 12.6 µM | U-251 > 62.5 µM | TK-10 > 62.5 µM | SF-268 > 62.5 µM | EKVX 12.9 µM | NCI-H226 8.87 µM | LOX IMVI 25.4 µM | SR 40.9 µM | UACC-62 33.2 µM | MDA-N 41 µM | MOLT-4 30.3 µM | HCT-116 61.8 µM | OVCAR-3 7.46 µM

COc1ccc(/C=C/c2sc3ccccc3[n+]2CCCCI)cc1OC
inactive: SN12C > 10 µM | NCI-H23 > 10 µM | RXF 393 > 10 µM | Hs-578T > 10 µM | SF-539 > 10 µM | CCRF-CEM 3.49 µM | OVCAR-5 > 10 µM | U-251 6.67 µM | TK-10 > 10 µM | SF-268 > 10 µM | EKVX > 10 µM | NCI-H226 > 10 µM | LOX IMVI > 10 µM | UACC-62 6.32 µM | MDA-N 5.97 µM | MOLT-4 5.87 µM | SK-MEL-5 5.55 µM | HCT-116 4.36 µM | OVCAR-3 5.47 µM

O=C(O)CC(NC(=O)CP(=O)(O)O)C(=O)O (configuration not stated)
inactive: SN12C 724 µM | NCI-H23 2800 µM | RXF 393 249 µM | Hs-578T 3640 µM | CCRF-CEM 682 µM | OVCAR-5 6120 µM | U-251 71.9 µM | TK-10 1420 µM | SF-268 180 µM | EKVX 2000 µM | NCI-H226 2280 µM | LOX IMVI 52.5 µM | UACC-62 79.6 µM | MDA-N 221 µM | MOLT-4 238 µM | SK-MEL-5 101 µM | HCT-116 21.5 µM | OVCAR-3 910 µM

Cc1ccc(S(=O)(=O)N[C@@H](Cc2ccccc2)C(=O)CCl)cc1 [TPCK]
inactive: SN12C 12.7 µM | NCI-H23 13.6 µM | RXF 393 1.38 µM | Hs-578T 1.82 µM | SF-539 16.5 µM | CCRF-CEM 3.7 µM | OVCAR-5 16.6 µM | U-251 16.2 µM | TK-10 17.2 µM | SF-268 15.7 µM | EKVX 17.2 µM | NCI-H226 15.2 µM | LOX IMVI 7.08 µM | UACC-62 13.6 µM | MDA-N 14.3 µM | SK-MEL-5 12.2 µM | HCT-116 11.6 µM | OVCAR-3 15.8 µM
